The numbers were not newly measured in US20240307497A1, “ADIPONECTIN ALONE OR IN COMBINATION WITH EXTRACORPOREAL PHOTOPHERESIS (ECP) FOR IMMUNE RELATED ADVERSE EVENTS OF IMMUNE CHECKPOINT INHIBITORS” (Mallinckrodt Pharmaceuticals Ireland Limited, priority 2022, published 2024), which cites them from elsewhere.

For one data set, the system named is ICI-colitis. The settings on record: cited from earlier work; for ORR (clinical remission) / response rate: retrospective observational cohort, best response at any time point.
The subject of the next data set is ICI-hepatitis. The conditions noted are these: cited from earlier work; for Response / Steroid reduction: case reports.
The mark [1] stands for this setting: retrospective analysis of 8 patients.
Where [2] appears, read: retrospective analysis of 13 patients.

Entries after “also recorded” stand apart in the source; their conditions may differ. Like-named read-outs stand apart in the source and are kept apart here.

In the case of “Vedolizumab: treatment for ICI-colitis in cited studies”, in the data set with ICI-colitis (retrospective case series, 28 patients refractory to steroids and/or infliximab), the endoscopic remission rate is 29%. The “ORR (clinical remission) / response rate” value in the data set with ICI-colitis and with ICI-colitis (listed as vedolizumab) was 89% each time.

On to `C=CC[C@@H]1/C=C(\C)C[C@H](C)C[C@H](OC)[C@H]2O[C@@](O)(C(=O)C(=O)N3CCCC[C@H]3C(=O)O[C@H](/C(C)=C/[C@@H]3CC[C@@H](O)[C@H](OC)C3)[C@H](C)[C@@H](O)CC1=O)[C@H](C)C[C@@H]2OC` [Tacrolimus], for which, in the data set with ICI-hepatitis, the Response result is “Decreasing ALT levels within 2-5” and the Steroid reduction result is “Cessation at 12 months; also recorded: Cessation of prednisolone over 6”.

In the case of “Tocilizumab: interleukin-6 blockade by tocilizumab”, in the data set on ICI-colitis (human, in vivo), the “Adverse events, any grade” value is reported as 80% and the “Adverse events, grade 3-4” value is on record as 25%. For the same molecule, in the data set on ICI-colitis (prospective trial, best response during 8 weeks), the “patients with reduction in symptoms” value is reported as 8 of 10. Besides, the ORR in the data set on ICI-colitis (prospective, 10 patients, colitis improvement (≥1 grade reduction) within 8 weeks) is listed as 80%. In the data set with ICI-colitis (prospective, 10 patients), the CR is given as 0%.

Turning to Infliximab: TNF antagonist, in the data set with ICI-hepatitis, the Response result was “Partial response, reduction of ALT” and the Steroid reduction entry is “Tapering to 30%, off steroid at 14”. Further, in the data set on ICI-colitis (setting [1]), the CR rate was 38% and the ORR was 50%. For the same molecule, in the data set with ICI-colitis (setting [2]), the CR is reported as 31% and the ORR is 45%. The “ORR (clinical remission) / response rate” value in the data set on ICI-colitis is reported as 88%.

For the molecule `COc1c(C)c2c(c(O)c1C/C=C(\C)CCC(=O)OCCN1CCOCC1)C(=O)OC2` [Mycophenolate mofetil], in the data set with ICI-hepatitis, the Response result is “Improved liver injury within 13; also recorded: Discharge of MMF after 68 days; also recorded: Liver function normalized within 3” and the Steroid reduction result is “Tapered from 60 to 10 mg/d; also recorded: Tapered from 500 to 10 mg/d; also recorded: Discontinuation after 1 year”. Also, the ORR in the data set with ICI-hepatitis (retrospective, 8 patients, liver function tests to grade 1 or less) is recorded as 50%. In addition, in the data set on ICI-hepatitis (retrospective, 8 patients), the Adverse events is given as 25%.
